Laboratory results taken from US20240352419A1, “METHODS AND COMPOSITIONS FOR DIFFERENTIATION OF PLURIPOTENT STEM CELLS AND DERIVED HEMATOPOIETIC LINEAGE CELLS” (NUWACELL BIOTECHNOLOGIES CO., LTD., priority 2022, published 2024).

Columns and labels:
Format in all cases: cell-based
[1] = system: K562 cells; test: Cytotoxicity of Stage 3 iNK cells by CFSE/7AAD assay; settings: added to Stage 3 medium (IL-10 20 ng/mL, IL-18 50 ng/mL), E:T 3:1, 4 hr, FIG. 13A
Protocol: hiPSCs were prepared as described in CN108373998B. On Day −1, Embryoid body (EB) formation (Stage 1-1) was carried out by placing individualized hiPSCs in E8 medium containing 10 μM Blebbistatin in T25 flasks on a bellydancer and culture overnight. On Day 0, lateral mesoderm differentiation (Stage 1-2) was initiated by changing the medium to a Stage 1-2 differentiation medium comprising IF-4 basal medium and supplemented with BMP4 (25 ng/mL), VEGF (15 ng/ml), bFGF (0.5 ng/mL) and CHIR99021 (4 μM) for 2 days. On Day 2, lateral mesoderm differentiation (Stage 1-3) continued for 1 day in a Stage 1-3 differentiation medium comprising IF-4 basal medium and supplemented with BMP4 (25 ng/mL), VEGF (50 ng/mL) and bFGF (0.5 ng/mL) and CHIR99021 (1 μM). On Day 3, HE specification (Stage 1-4) was initiated by adding a Stage 1-4 differentiation medium comprising IF-4 basal medium and supplemented with VEGF (15 ng/ml), bFGF (5 ng/ml), XAV939 (5 μM) for 1 day. […] On Day 11 of co-culture, iNK cells were collected and stained with CD56-PE antibody (BD, #555516), the percentage of CD56+ cells was analyzed by flow cytometry. The cytotoxicity of Stage 3 iNK cells towards K562 cells was detected by CFSE/7AAD assay after 4 hr co-culture at E:T of 3:1.

[2] = system: PBNK cells; test: Expansion of PBNK cells from PBMCs (expansion fold, CD56+CD3- percentage by flow cytometry); settings: effect of heparin sodium concentration (0-50 μg/mL) in NKSFM
Protocol: The effect of the concentration of nicotinamide (NAM) in an exemplary basal medium on NK cell expansion was evaluated. The above basal medium comprised the following components: IMDM (Sigma):RPMI1640 (Gibco) (50%: 50%); about 1.3 ng/ml of Cupric sulfate, about 3 μM of Ferric sulfate, about 0.432 μg/mL of Zinc sulfate, about 1˜50 ng/ml of Na Selenite, about 110 μg/mL of Sodium pyruvate, 0.1˜20 μg/mL of Insulin, 1˜200 μg/mL of Transferrin, about 1% (v/v) of GlutaMAX-1, 0.1˜20 mg/mL of HSA, 1˜400 μM of MTG, about 80 μg/mL of Ascorbic acid and indicated concentration of NAM. Peripheral blood mononuclear cells (PBMCs) were isolated by density gradient centrifugation using Ficoll-Paque. On Day 0, PBMCs were plated at 1×10^6 cells/mL in a 48-well-plate in the basal medium with NAM (either 0, 1, 2, 2.5, 3, 3.5, 4, or 5 mM) and stimulated with the following reagents for 3 days: immobilized CD16 antibody (Biolegend, 302014) (135 ng/cm^2), IL-2 (700 IU/mL), IL-15 (10 ng/ml) and OK432 (0.01 KE/mL). On day 3, cells were re-suspended in the above basal medium supplemented with IL-2 (700 IU/mL) and IL-15 (10 ng/mL). Fresh medium was added every other day to maintain cell density below 2×10^6 cells/mL. Cells were collect on Day 14 and stained with CD56-PE and CD3-PerCP-Cy5.5 antibodies, the percentage of CD56^+CD3^− NK cells was analyzed by flow cytometry.
(§1) The effect of heparin sodium concentration in an exemplary NKSFM on NK cell expansion was also evaluated. NKSFM comprised the following components: IMDM (Sigma):DMEM/F12 (Gibco) (50%: 50%); about 20 μM of Ethanolamine, about 1˜50 ng/ml of Na Selenite, about 110 μg/mL of Sodium pyruvate, 0.1˜20 μg/mL of Insulin, 1˜200 μg/mL of Transferrin, about 1% (v/v) of GlutaMAX-1, 0.1˜20 mg/mL of Human serum albumin, 1˜400 μM of MTG, about 80 μg/mL of Ascorbic acid, about 1˜5 mM of NAM, 4% (v/v) of PLT, and indicated concentration of heparin sodium. PBMCs were isolated by density gradient centrifugation using Ficoll-Paque. On Day 0, PBMCs were plated at 1×10^6 cells/mL in a 48-well-plate in NKSFM with heparin sodium (0, 0.5, 1, 3, 10, 30, or 50 μg/mL) and stimulated with the following reagents for 3 days: immobilized CD16 antibody (Biolegend, 302014) (135 ng/cm^2), OK432 (0.01 KE/mL), NeoIL-2 (50 ng/ml), IL-12 (10 ng/mL), IL-18 (50 ng/mL). […] Cells were collect on Day 13 and stained with CD56-PE and CD3-PerCP-Cy5.5 antibodies, the percentage of CD56^+CD3^− NK cells was analyzed by flow cytometry. The specific lysis of K562 tumor cells by NK cells were assessed by CFSE/7-AAD cytotoxicity assay. […] After incubation for 4 hours, cells were stained with 7-AAD (Live/dead staining) and analyzed with flow cytometry.
The effect of PLT percentage (v/v) in an exemplary NKSFM on NK cell expansion was evaluated. […]

[3] = system: K562 tumor cells; test: CFSE/7-AAD cytotoxicity assay of expanded NK cells; settings: effect of heparin sodium concentration in NKSFM, E:T 3:1, 4 hours, FIG. 3C
Protocol: as §1, with “Ficoll-Paque.” for “Ficoll-Paque. On Day 0, PBMCs were plated at 1×10^6 cells/mL in a 48-well-plate in NKSFM with heparin sodium (0, 0.5, 1, 3, 10, 30, or 50 μg/mL) and stimulated with the following reagents for 3 days: immobilized CD16 antibody (Biolegend, 302014) (135 ng/cm^2), OK432 (0.01 KE/mL), NeoIL-2 (50 ng/ml), IL-12 (10 ng/mL), IL-18 (50 ng/mL).”
The effect of PLT percentage (v/v) in an exemplary NKSFM on NK cell expansion was evaluated. […] Cells were collect on Day 14 and stained with CD56-PE and CD3-PerCP-Cy5.5 antibodies, the percentage of CD56^+CD3^− NK cells was analyzed by flow cytometry. The specific lysis of K562 tumor cells by NK cells were assessed by CFSE/7-AAD cytotoxicity assay. […]

Row | Substance | cytotoxicity of iNK cells [1] | NK cell expansion fold ([2]; Day 13, FIG. 3A) | percentage of CD56+CD3− NK cells ([2]; Day 13, FIG. 3B) | specific lysis of K562 tumor cells [3]
1 | IL-10: interleukin added to Stage 3 expansion and maturation medium | significantly improve |  |  | 
2 | heparin sodium |  | significantly influences | minimal effect | minimal effect
